Experiments:
[1] = target: T1, Muscarinic acetylcholine receptor M1 (Homo sapiens, UniProt P11229); assay: Compound was tested for its binding affinity against M1 human recombinant muscarinic receptor in CHO cells.; assay type: cell-based
T1 sequence (P11229 whole entry): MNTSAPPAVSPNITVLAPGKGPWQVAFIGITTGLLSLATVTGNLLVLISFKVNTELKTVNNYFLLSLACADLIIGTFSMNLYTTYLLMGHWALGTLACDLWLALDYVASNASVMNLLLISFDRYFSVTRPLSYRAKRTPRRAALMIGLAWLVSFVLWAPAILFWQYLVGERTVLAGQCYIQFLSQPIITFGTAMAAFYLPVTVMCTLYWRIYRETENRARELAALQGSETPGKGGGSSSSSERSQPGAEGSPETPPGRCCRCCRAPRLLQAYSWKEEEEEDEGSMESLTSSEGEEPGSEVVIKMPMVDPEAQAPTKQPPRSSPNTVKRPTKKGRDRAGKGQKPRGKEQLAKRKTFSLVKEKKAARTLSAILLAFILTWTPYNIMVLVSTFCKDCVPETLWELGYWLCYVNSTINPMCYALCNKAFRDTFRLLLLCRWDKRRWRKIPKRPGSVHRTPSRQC

[2] = target: T2, Neuronal acetylcholine receptor subunit alpha-7 (Rattus norvegicus, UniProt Q05941); assay: Compound was tested for its binding affinity against nicotinic receptor in synaptic membrane fractions from rat cerebral cortices.; assay type: cell membranes
[3] = target: T3, Muscarinic acetylcholine receptor M1 (Homo sapiens) (UniProt P11229); assay: Ability to displace [3H]N-methylscopolamine binding to M1 human recombinant muscarinic receptor in CHO cells at concentration 10 uM; assay type: cell-based
T3 sequence (whole entry): T1 sequence (P11229 whole entry)

[4] = target: T4, Muscarinic acetylcholine receptor M2 (Homo sapiens) (UniProt P08172); assay: Ability to displace [3H]N-methylscopolamine binding to M2 human recombinant muscarinic receptor in CHO cells at concentration 1 uM; assay type: cell-based
T4 sequence (whole entry): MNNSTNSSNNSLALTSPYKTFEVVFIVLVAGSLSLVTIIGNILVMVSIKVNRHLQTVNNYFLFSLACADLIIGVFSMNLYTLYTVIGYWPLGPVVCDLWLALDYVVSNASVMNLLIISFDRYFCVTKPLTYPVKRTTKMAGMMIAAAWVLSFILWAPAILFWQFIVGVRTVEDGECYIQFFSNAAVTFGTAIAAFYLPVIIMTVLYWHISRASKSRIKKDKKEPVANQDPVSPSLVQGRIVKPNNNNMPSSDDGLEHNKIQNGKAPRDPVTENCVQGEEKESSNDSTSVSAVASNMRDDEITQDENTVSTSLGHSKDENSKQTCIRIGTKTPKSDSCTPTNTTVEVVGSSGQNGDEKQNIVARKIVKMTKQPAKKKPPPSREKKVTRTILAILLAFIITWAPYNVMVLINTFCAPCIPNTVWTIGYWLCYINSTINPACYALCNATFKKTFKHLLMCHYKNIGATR

[5] = target: T4, Muscarinic acetylcholine receptor M2 (Homo sapiens); assay: Ability to displace [3H]N-methylscopolamine binding to M2 human recombinant muscarinic receptor in CHO cells at concentration 10 uM; assay type: cell-based
[6] = target: Muscarinic acetylcholine receptor M3 (Homo sapiens) (UniProt P20309); assay: Ability to displace [3H]N-methylscopolamine binding to M3 human recombinant muscarinic receptor in CHO cells at concentration 10 uM; assay type: cell-based
[7] = target: T3, Muscarinic acetylcholine receptor M1 (Homo sapiens); assay: Ability to displace [3H]N-methylscopolamine binding to M1 human recombinant muscarinic receptor in CHO cells at concentration 1 uM; assay type: cell-based
[8] = target: T2, Neuronal acetylcholine receptor subunit alpha-7; assay: The compound was tested for its binding affinity against nicotinic receptor in synaptic membrane fractions from rat cerebral cortices.; assay type: cell membranes
[9] = target: T5, Neuronal acetylcholine receptor (Rattus norvegicus) (UniProt P04757+P09483+P12389+P12390+P12392+P43144+Q9JLB5+P12391+P43143+P20420+Q05941); assay: Ability to displace [3H]cytisine binding to nicotinic receptor in synaptic membrane fractions from rat cerebral cortices at a concentration of 10 uM.; assay type: cell membranes
[10] = target: Muscarinic acetylcholine receptor M3 (Homo sapiens) (UniProt P20309); assay: Ability to displace [3H]N-methylscopolamine binding to M3 human recombinant muscarinic receptor in CHO cells at concentration 1 uM; assay type: cell-based
[11] = target: Neuronal acetylcholine receptor; assay: The compound was tested for its binding affinity against Nicotinic acetylcholine receptor in synaptic membrane fractions from rat cerebral cortices.; assay type: cell membranes
[12] = target: T6, Acetylcholine receptor subunit delta (Torpedo californica) (UniProt P02718); assay: (§1) Ability to displace [3H]cytisine binding to Nicotinic acetylcholine receptor in synaptic membrane fractions from rat cerebral cortices at a concentration of 10 uM.; assay type: cell membranes; conditions: target entry is the homologue from another species
T6 sequence (whole entry): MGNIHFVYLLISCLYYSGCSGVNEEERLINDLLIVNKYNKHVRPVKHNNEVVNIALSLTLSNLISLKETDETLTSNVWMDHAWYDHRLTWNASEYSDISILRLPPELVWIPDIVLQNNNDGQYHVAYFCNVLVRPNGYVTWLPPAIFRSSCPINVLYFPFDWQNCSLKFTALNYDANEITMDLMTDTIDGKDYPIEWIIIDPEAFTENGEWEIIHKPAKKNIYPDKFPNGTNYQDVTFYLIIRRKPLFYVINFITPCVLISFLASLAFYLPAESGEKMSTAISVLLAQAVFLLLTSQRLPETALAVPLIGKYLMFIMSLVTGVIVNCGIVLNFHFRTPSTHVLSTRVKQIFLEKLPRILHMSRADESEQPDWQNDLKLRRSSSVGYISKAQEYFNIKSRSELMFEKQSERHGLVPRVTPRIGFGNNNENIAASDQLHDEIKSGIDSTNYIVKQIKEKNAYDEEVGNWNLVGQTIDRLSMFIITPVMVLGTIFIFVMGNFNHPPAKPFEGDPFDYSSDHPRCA

[13] = target: T5, Neuronal acetylcholine receptor (Rattus norvegicus); assay: as §1; assay type: cell membranes

T2 sequence (Q05941 whole entry): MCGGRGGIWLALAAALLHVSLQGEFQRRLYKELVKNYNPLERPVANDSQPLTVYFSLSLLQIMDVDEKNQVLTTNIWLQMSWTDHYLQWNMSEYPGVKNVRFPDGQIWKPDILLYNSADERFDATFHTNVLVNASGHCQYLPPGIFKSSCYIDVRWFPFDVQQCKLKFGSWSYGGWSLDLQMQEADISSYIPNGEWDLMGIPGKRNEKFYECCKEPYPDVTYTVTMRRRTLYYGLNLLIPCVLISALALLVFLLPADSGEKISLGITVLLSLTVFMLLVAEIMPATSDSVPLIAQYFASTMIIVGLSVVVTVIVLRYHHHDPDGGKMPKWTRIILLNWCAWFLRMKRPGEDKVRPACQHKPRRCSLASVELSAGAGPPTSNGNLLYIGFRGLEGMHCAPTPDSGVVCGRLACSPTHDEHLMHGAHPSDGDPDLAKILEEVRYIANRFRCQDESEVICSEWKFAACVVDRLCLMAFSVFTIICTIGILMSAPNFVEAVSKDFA
Sequence of Muscarinic acetylcholine receptor M3 (Homo sapiens) (P20309 whole entry, looked up): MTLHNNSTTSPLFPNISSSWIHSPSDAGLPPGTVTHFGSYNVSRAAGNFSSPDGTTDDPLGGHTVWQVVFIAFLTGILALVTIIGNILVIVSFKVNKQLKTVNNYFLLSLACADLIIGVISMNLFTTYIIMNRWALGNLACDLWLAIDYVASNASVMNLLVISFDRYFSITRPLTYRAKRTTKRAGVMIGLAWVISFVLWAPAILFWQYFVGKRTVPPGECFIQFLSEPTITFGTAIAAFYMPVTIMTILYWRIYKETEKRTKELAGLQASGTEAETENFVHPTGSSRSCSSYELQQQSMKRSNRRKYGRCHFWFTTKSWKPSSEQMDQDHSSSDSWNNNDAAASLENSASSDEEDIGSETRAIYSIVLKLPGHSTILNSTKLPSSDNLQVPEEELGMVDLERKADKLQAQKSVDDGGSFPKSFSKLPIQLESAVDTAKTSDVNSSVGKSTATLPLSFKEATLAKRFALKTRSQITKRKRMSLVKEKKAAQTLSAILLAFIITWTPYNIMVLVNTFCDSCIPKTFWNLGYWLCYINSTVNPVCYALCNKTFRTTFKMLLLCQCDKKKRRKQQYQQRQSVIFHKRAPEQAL

Row | Compound | IC50 [1] | IC50 [2] | inhibition [3] | inhibition [4] | inhibition [5] | inhibition [6] | inhibition [7] | IC50 [8] | inhibition [9] | inhibition [10] | IC50 [11] | inhibition [12] | inhibition [13]
1 | Cc1cc(/C=C2\CN3CCC2CC3)on1 | ~10 µM | 12 nM | – | – | – | – | – | – | – | – | – | – | –
2 | N#Cc1ccc(-c2cc(/C=C3\CN4CCC3CC4)on2)cc1 | – | – | 22% | 6% | 32% | 31% | 2% | > 10 nM | 83% | 9% | – | – | –
3 | Oc1ccc(-c2cc(/C=C3/CN4CCC3CC4)on2)cc1 | – | – | 65% | 3% | 17% | 14% | 6% | 695 nM | 93% | 3% | – | – | –
4 | Oc1ccc(-c2cc(/C=C3/CN4CCC3CC4)on2)cc1O | – | – | 59% | 12% | 43% | 39% | 13% | – | – | 5% | 486 nM | 95% | –
5 | Nc1ccc(-c2cc(/C=C3/CN4CCC3CC4)on2)cc1 | – | – | 86% | 5% | 30% | 19% | 33% | – | – | 1% | 709 nM | 94% | –
6 | COc1ccc(-c2cc(/C=C3\CN4CCC3C4)on2)cc1 (stereo not drawn) | – | – | 34% | 7% | 24% | 2% | 0% | – | – | 0% | – | – | 55%
7 | Nc1ccc(-c2cc(/C=C3\CN4CCC3CC4)on2)cc1 | – | – | 4% | 0% | 5% | 0% | 0% | – | – | 0% | – | – | 77%
8 | N#Cc1ccc(-c2cc(/C=C3/CN4CCC3CC4)on2)cc1 | – | – | 61% | 0% | 23% | 26% | 11% | 803 nM | 92% | 1% | – | – | –
9 | Oc1ccc(-c2cc(/C=C3\CN4CCC3CC4)on2)cc1O | – | – | 8% | 0% | 7% | 0% | 0% | – | – | 0% | – | 88% | –

— ChEMBL document CHEMBL1131993, “Binding affinities of 3-(3-phenylisoxazol-5-yl)methylidene-1-azabicycles to acetylcholine receptors” (Bioorg Med Chem Lett, 1999)
